Results as given in US20250102494A1, “COMPOSITION FOR PREDICTING OXALIPLATIN DRUG EFFICACY, AND USE THEREOF” (SAMSUNG LIFE PUBLIC WELFARE FOUNDATION, priority 2022, published 2025).

Test system: HCT116 cells
Assay: ATPlite cell viability after drug treatment, HCT116 cells in cell-line or organoid culture media
Type: cell-based
Details: HCT-116; for drug response, colorectal cancer cell line compared with cells under Ex1 organoid culture conditions: FIG. 2; for drug responsiveness, colorectal cancer cell line compared with organoids cultured in Ex1 and Ex2: FIG. 25
Method: Advanced DMEM/F12+++ (hereinafter referred to as “Ad/DF+++”) was used to produce colorectal cancer organoids. Ad/DF+++ was refrigerated at 4° C. until use, and was used in a cold state during cell washing. Ad/DF+++ medium containing the reagents shown in Table 1 below along with Ad/DF 1× (Gibco) was prepared.
After preparing the Ad/DF+++ medium containing the above reagents, an appropriate amount of Matrigel (Corning #356231) was added so that the ratio between Matrigel and cells suspended in the Ad/DF+++ medium was 7:3. Then, the cells were plated on low attachment well plates at an appropriate density. The density and the type and number of well plates were determined according to the characteristics of each cell type. The medium was prepared according to the composition shown in Table 2 below, and the cells were cultured (expanded) until the required level was reached while the medium was replaced every 3 to 4 days.
If the organoids were expanded as needed for the experiment, the medium was carefully removed, taking care not to touch the Matrigel. The cells were separated from the Matrigel by pipetting about 20 times with 1 ml of cold Ad/DF+++. The cells in 1 to 4 wells per 6-well plate were collected in one 50 ml tube. If cells are collected from more than 4 wells into one tube, the Metrigel may not be washed properly. For this reason, the cells were placed in several tubes. Thereafter, Ad/DF+++ was poured to 20 to 50 ml of each tube, followed by centrifugation at 400 g for 3 minutes at 4° C. The cells were dissociated with 1 to 2 mL of TrypLE™ Express Enzyme (Gibco, 1264-013), transferred to low-attachment 24 well plates, and then treated with 10 μM of Y-27632. Next, the cells were cultured in a CO2 incubator for 5 minutes at 37° C. After pipetting about 20 times, whether the cells would be dissociated into single cells was checked by microscopic observation. If the cells were not dissociated into single cells, the culture under CO2 and pipetting processes were repeated. After the single cells were transferred into 15-ml tubes, Ad/DF+++ was filled to 10 to 15 ml of each tube, followed by centrifugation at 400 g at 4° C. for 3 minutes. After suspending the pellet in Ad/DF+++, the cells were counted and diluted with medium according to the required number of cells.
12 hours after seeding in Experimental Example 1-2 above, the medium was changed with the medium shown in Table 3 below, followed by culturing to produce organoids.
Four hours after the medium change, the cells were treated with oxaliplatin, 5-FU, Irinotecan, and folinic acid. Five days after drug treatment, intracellular ATP expression was determined using the ATPlite assay kit (PerkinElmer), and the data were expressed in terms of cell viability, IC50, and AUC.
As the standard for confirming that cells are sensitive to the drug, the response of the cells to the drug was assumed to be 100%, and the luminescence value of surviving cells after drug treatment was analyzed and compared with the quantified drug response value.
Based on the assumption that the factor that increases the resistance of the organoids to oxaliplatin is an activator or inhibitor that changes the phenotype, the organoids prepared by excluding some or all of activators and inhibitors as shown in Table 4 below were treated with oxaliplatin.
In order to identify the factors that reduce the resistance to oxaliplatin of the Ex2 organoid, activators or inhibitors that change the phenotype were added one by one to the Ex2 organoid composition, thus producing organoids as shown in Table 8 below. Then, it was checked whether the produced organoids had increased resistance to oxaliplatin.

| Structure (SMILES) | drug response, colorectal cancer cell line compared with cells under Ex1 organoid culture conditions | drug responsiveness, colorectal cancer cell line compared with organoids cultured in Ex1 and Ex2 |
| --- | --- | --- |
| O=c1[nH]cc(F)c(=O)[nH]1 [5-FU, 5-fluorouracil] | drug response results similar to those of the cells cultured under the organoids culture conditions | drug responses similar to the cells cultured in the organoid culture conditions |
| CCc1c2c(nc3ccc(OC(=O)N4CCC(N5CCCCC5)CC4)cc13)-c1cc3c(c(=O)n1C2)COC(=O)[C@]3(O)CC [irinotecan] | drug response results similar to those of the cells cultured under the organoids culture conditions | drug responses similar to the cells cultured in the organoid culture conditions |
| Nc1nc(=O)c2c([nH]1)NCC(CNc1ccc(C(=O)N[C@@H](CCC(=O)O)C(=O)O)cc1)N2C=O (mixture of isomers) [folinic acid] | drug response results similar to those of the cells cultured under the organoids culture conditions | drug responses similar to the cells cultured in the organoid culture conditions |
